Source: patent US20250269000A1, “ANTI-TUMOUR RESPONSES TO CYTOKERATINS” (SCANCELL LIMITED, priority 2020, published 2025)
Where a SMILES comes first, the peptide text is derived from it. Where no end group is shown, it is not given here. [ ]: non-standard residue; d: D form. Cit = NC(=O)NCCC[C@H](N)C(=O)O

Legend:
[1] = test system: B16 HHDII/iDP4 tumour cells; assay: Tumour challenge, B16 HHDII/iDP4 in HHDII/DP4 mice; assay type: in vivo; conditions: immunised tumour bearing HHDII/DP4 mice
Description: HHDII/DP4 mice were challenged with B16 tumour with IFNγ inducible DP4. Four days later the HHDII/DP4 mice were immunised with Cyk8 371-388 cit or Cyk8 371-388 wt peptide on days 4, 11 and 18. Overall survival (A), tumour volume (B) at day 29 and tumour volume throughout the study (C), post tumour implant are shown for unimmunised control mice and mice immunised with either Cyk8 371-388 cit peptide or Cyk8 371-388 wt peptide. Statistical differences between immunised and control mice were determined by Mantel-Cox test, p values are shown. The tumour volume medians and p values are shown as determined by Mann Whitney U test, n=10 in all group.
HHDII/DP4 mice were challenged with B16 tumour with IFNγ inducible DP4. Four days later the HHDII/DP4 mice were immunised with Cyk8 371-388 cit peptide on days 4, 11 and 18. Overall survival (A), tumour volume (B) at day 24 and tumour volume throughout the study (C), post tumour implant are shown for unimmunised control mice and mice immunised with Cyk8 101-120 cit peptide. Statistical differences between immunised and control mice were determined by Mantel-Cox test, p values are shown. The tumour volume medians and p values are shown as determined by Mann Whitney U test, n=10 in all group.
For tumour challenge experiments, mice were challenged with 1×10^5 B16 HHDII/iDP4 cells subcutaneously on the right flank […] before primary immunisation (unless stated otherwise) and then immunised as described above. Tumour growth was monitored at 3-4 days intervals and mice humanely euthanised once tumour reached ≥10 mm in diameter.
The effect of immunisation with Cyk8 371-388 (cit and wt) on the growth of the mouse B16 melanoma cell line transfected with IFNγ inducible human DP4 (iDP4) was assessed in HHDII/DP4 transgenic mice (FIG. 9A). […]
The effect of immunisation with Cyk8 101-120 cit on the growth of the mouse B16 melanoma cell line transfected with IFNγ inducible human DP4 (iDP4) was assessed in HHDII/DP4 transgenic mice (FIG. 10A). […]

[2] = test system: HHDII/DP4 transgenic mice; assay: Ex vivo IFNγ ELISpot on splenocytes of peptide-immunised HHDII/DP4 mice; assay type: in vivo, mouse; conditions: for IFNγ responses detected in immunised mice: 25 μg peptide s.c. with CpG/MPLA once a week for three weeks, ELISpot 7 days after third immunisation; for IFNγ response in the presence of the CD8 antibody / IFNγ response in the presence of the anti CD4 antibody: HHDII/DP4, blocking antibody 20 μg/mL; for cross-reactivity of the response to the wt version: HHDII/DP4 mice immunised with cit peptide; for IFNγ response to citrullinated peptide compared to media only: screening, HHDII/DP4 mice, 25 μg peptide with CpG/MPLA weekly for three weeks; for T cell responses in HLA-DP4 transgenic mice / reactivity to the unmodified wildtype sequence: summary statement
Procedure: The HHDII/HLA-DP4 transgenic strain of mouse as described in patent WO2013/017545 A1 (EMMA repository, France) and C57BL/6 mice (Charles River, UK) were used, aged between 8 and 12 weeks, and cared for by the staff at Nottingham Trent University. All work was carried out under a Home Office project licence. Peptides were dissolved in 10% dimethylformamide to 1 mg/mL and then emulsified (a series of dilutions) with the adjuvant CpG and MPLA 6 μg/mouse of each (Invivogen, UK). Peptides (25 μg/mouse) were injected subcutaneously at the base of the tail.
ELISpot assays were performed using murine IFNγ capture and detection reagents according to the manufacturer's instructions (Mabtech, Sweden). In brief, anti-IFNγ antibody was coated onto wells of a 96-well Immobilin-P plate. Synthetic peptides (at a variety of concentrations) and 5×10^5 per well splenocytes were added to the wells of the plate in triplicate. LPS at 5 μg/mL was used as a positive control. Peptide pulsed target cells were added where relevant at 5×10^4 per well in triplicate and plates incubated for 40 hours at 37° C. After incubation, captured IFNγ was detected by a biotinylated anti-IFNγ antibody and developed with a streptavidin alkaline phosphatase and chromogenic substrate. Lipopolysaccharide (LPS; 5 μg/mL) was used as a positive control. For blocking studies, anti-CD4 blocking antibody (RPA-T4) and anti-CD8 blocking antibody (2.43) from Bioxcell were used at 20 μg/mL. Spots were analysed and counted using an automated plate reader (Cellular Technologies Ltd).
HHDII/DP4 and C57BL/6 mice were immunised with human citrullinated peptides in combination with CpG/MPLA as an adjuvant. 25 μg of peptide was administered subcutaneously as a single immunisation given once a week for three weeks Mice were culled 7 days after the third immunisation, the immune response to each peptide was assessed by ex vivo IFNγ ELISpot (FIG. 2). We have previously shown that citrullinated peptides can induce responses in the transgenic DR4 mouse strain. Given that different mouse strains have different MHC repertoires, the transgenic strain HHDII/DP4 and non-transgenic C57BL/6 mice were used for screening.
To determine if the immune response to the Cyk8 peptides is specific to the citrullinated peptide and not the wild type (wt) version, HHDII/DP4 transgenic mice were immunised with Cyk8 101-120 cit, 133-151 cit, 217-236 cit, 371-388 cit, 381-399 cit or Cyk8 101 wt, 133-151 wt, 371-388 wt peptides. HHDII/DP4 mice received 25 μg peptide with CpG/MPLA subcutaneously once a week for three weeks. Mice were culled 7 days after the third immunisation, the immune response to each peptide was assessed by ex vivo ELISpot (FIGS. 3A and 3B).
To determine whether the response to Cyk8 8-26 cit, Cyk8 101-120 cit, Cyk8 133-151 cit, Cyk8 371-388 cit, Cyk8 381-399 cit is CD4 dependent HHDII/DP4 transgenic mice and C57BL/6 mice received 25 μg peptide subcutaneously in combination with CpG/MPLA as an adjuvant, once a week for three weeks (FIG. 6A HHDII/DP4, FIG. 6B C57BL/6). Mice were culled 7 days after the third immunisation, an ELISpot assay was performed in the presence of an anti CD4 or CD8 antibody. […]

[3] = test system: splenocytes of immunised HHDII/DP4 mice; assay: Peptide titration (avidity of T cell response) by IFNγ ELISpot; assay type: cell-based, mouse; conditions: peptide titration 0.001 to 10 μg/ml
Procedure: Transgenic mouse strains expressing HHDII/DP4 and parental C57BL mice were used to screen for IFNγ responses to peptide (A and B respectively). Mice were immunised with peptide pools of up to 2-3 non-overlapping human Cyk8 citrullinated peptides over three weeks. Splenocytes were harvested 21 days after the initial dose was administered. Ex vivo responses to stimulation with human Cyk8 cit peptides was assessed by IFNγ ELISpot. Media only responses were used as a negative control. n≥3 symbol represents mean response for individual mice, line represents median value between mice. Statistical significance of peptide response was compared to media only responses for each pool and determined using ANOVA with Dunnett's post-hoc test * […], ** p<0.01, *** p<0.001, **** p<0.0001, only significant p values are shown. […]
ELISpot assays were performed using murine IFNγ capture and detection reagents according to the manufacturer's instructions (Mabtech, Sweden). […] After incubation, captured IFNγ was detected by a biotinylated anti-IFNγ antibody and developed with a streptavidin alkaline phosphatase and chromogenic substrate. […] Spots were analysed and counted using an automated plate reader (Cellular Technologies Ltd).
Significant IFNγ responses were detected to human Cyk8 citrullinated peptides in transgenic HHDII/DP4 mice (FIG. 2A) and C57BL/6 mice (FIG. 2B). […]

CC[C@H](C)[C@H](NC(=O)[C@H](CCC(=O)O)NC(=O)[C@@H](NC(=O)[C@H](CC(=O)O)NC(=O)[C@H](CC(C)C)NC(=O)[C@H](C)NC(=O)[C@H](CC(C)C)NC(=O)[C@H](CCCCN)NC(=O)[C@@H](NC(=O)[C@H](CC(N)=O)NC(=O)[C@H](CCSC)NC(=O)[C@H](CC(C)C)NC(=O)[C@H](CCC(=O)O)NC(=O)[C@H](CCC(N)=O)NC(=O)[C@H](Cc1ccc(O)cc1)NC(=O)[C@H](CCC(=O)O)NC(=O)[C@H](CCCNC(=N)N)NC(=O)[C@@H](N)CC(C)C)C(C)C)[C@@H](C)CC)C(=O)O [Cyk8 371-388 wt, LREYQELMNVKLALDIEI, reference compound] (H-LREYQELMNVKLALDIEI-OH)
associated toxicity [1]: no associated toxicity

CC[C@H](C)[C@H](NC(=O)[C@H](Cc1ccccc1)NC(=O)[C@H](CO)NC(=O)[C@H](C)NC(=O)[C@H](Cc1ccccc1)NC(=O)[C@@H](N)CCCCN)C(=O)N[C@@H](CC(=O)O)C(=O)N[C@@H](CCCCN)C(=O)N[C@H](C(=O)N[C@@H](CCCNC(N)=O)C(=O)N[C@@H](Cc1ccccc1)C(=O)N[C@@H](CC(C)C)C(=O)N[C@@H](CCC(=O)O)C(=O)N[C@@H](CCC(N)=O)C(=O)N[C@@H](CCC(N)=O)C(=O)N[C@@H](CC(N)=O)C(=O)N[C@@H](CCCCN)C(=O)N[C@@H](CCSC)C(=O)N[C@@H](CC(C)C)C(=O)N[C@@H](CCC(=O)O)C(=O)O)C(C)C [Cyk8 101-120 cit, KFASFIDKV-cit-FLEQQNKMLE] (H-KFASFIDKV[Cit]FLEQQNKMLE-OH)
associated toxicity [1]: no associated toxicity

KFASFIDKVRFLEQQNKMLE (listed as Homo sapiens) [Cyk8 101-120 wt, wild type (unmodified) Cyk8 101-120 peptide, reference compound]
IFNγ responses detected in immunised mice [2]: Low to moderate

CC[C@H](C)[C@H](NC(=O)[C@H](CCC(=O)O)NC(=O)[C@@H](NC(=O)[C@H](CC(=O)O)NC(=O)[C@H](CC(C)C)NC(=O)[C@H](C)NC(=O)[C@H](CC(C)C)NC(=O)[C@H](CCCCN)NC(=O)[C@@H](NC(=O)[C@H](CC(N)=O)NC(=O)[C@H](CCSC)NC(=O)[C@H](CC(C)C)NC(=O)[C@H](CCC(=O)O)NC(=O)[C@H](CCC(N)=O)NC(=O)[C@H](Cc1ccc(O)cc1)NC(=O)[C@H](CCC(=O)O)NC(=O)[C@H](CCCNC(N)=O)NC(=O)[C@@H](N)CC(C)C)C(C)C)[C@@H](C)CC)C(=O)O [Cyk8 371-388 cit, L-cit-EYQELMNVKLALDIEI] (H-L[Cit]EYQELMNVKLALDIEI-OH)
associated toxicity [1]: no associated toxicity

KLALDIEIATY-cit-KLLEGEE (KLALDIEIATY[Cit]KLLEGEE) [Cyk8 381-399 cit, Cyk8 381-399, citrullinated at position 392]
IFNγ responses detected in immunised mice [2]: Moderate to high | IFNγ response in the presence of the CD8 antibody [2]: significantly reduced | IFNγ response in the presence of the anti CD4 antibody [2]: significantly reduced | cross-reactivity of the response to the wt version [2]: no cross-reactivity | IFNγ response to citrullinated peptide compared to media only [2]: significant immune responses | T cell responses in HLA-DP4 transgenic mice [2]: potent T cell responses | reactivity to the unmodified wildtype sequence [2]: minimal reactivity

LTDEINFL-cit-QLYEEEI-cit-ELQ (LTDEINFL[Cit]QLYEEEI[Cit]ELQ) [Cyk8 217-236 cit, Cyk8 217-236, citrullinated at positions 225 and 233]
log EC50 (avidity of T cell response) ([3]; unit not given): -5.0 to-5.9 | IFNγ responses detected in immunised mice [2]: Moderate to high | cross-reactivity of the response to the wt version [2]: no cross-reactivity | IFNγ response to citrullinated peptide compared to media only [2]: significant immune responses | T cell responses in HLA-DP4 transgenic mice [2]: potent T cell responses | reactivity to the unmodified wildtype sequence [2]: minimal reactivity

RSNMDNMFESYINNLRRQL (listed as Homo sapiens) [Cyk8 131-15 wt, wild type (unmodified) Cyk8 133-151 peptide, reference compound]
IFNγ responses detected in immunised mice [2]: Low to moderate

cit-SNMDNMFESYINNL-cit-cit-QL ([Cit]SNMDNMFESYINNL[Cit][Cit]QL) [Cyk8 133-151 cit, Cyk8 133-151, citrullinated at position 133, 148 and 149]
log EC50 (avidity of T cell response) [3]: -6.0 to-6.5 M | IFNγ responses detected in immunised mice [2]: Moderate to high | IFNγ response in the presence of the CD8 antibody [2]: not significantly reduced | IFNγ response in the presence of the anti CD4 antibody [2]: not significantly reduced | cross-reactivity of the response to the wt version [2]: no cross-reactivity | IFNγ response to citrullinated peptide compared to media only [2]: significant immune responses | T cell responses in HLA-DP4 transgenic mice [2]: potent T cell responses | reactivity to the unmodified wildtype sequence [2]: minimal reactivity
